For assay [1], the target named is PDEV (Oryctolagus cuniculus, UniProt G1SX67). In words: PDE assay: inhibition of PDEV isolated from rabbit tissue. Format: biochemical. Particulars: PDEV inhibitory activity, rabbit tissue (footnote a). The procedure:
(§1) Briefly, rabbit or human tissues were homogenized in an ice-cold buffer solution containing 20 mM HEPES (pH 7.2), 0.25M sucrose, 1 mM EDTA, and 1 mM phenylmethylsulphonyl fluoride (PMSF). The homogenates were centrifuged at 100,000 g for 60 minutes at 4° C. The supernatant was filtered through […] filter and loaded on a Pharmacia Mono Q anion exchange column (1 ml bed volume) that was equilibrated with 20 mM HEPES, 1 mM EDTA and 0.5 mM PMSF. After washing out unbound proteins, the enzymes were eluted with a linear gradient of 100-600 mM NaCl in the same buffer (35 to 50 ml total, depending on the tissue. Enzymes from the skeletal muscle, corpus cavernosum, retina, heart and platelet were eluted with 35, 40, 45, 50, and 50 ml respectively.) The column was run at a flow rate of 1 ml/min and 1 ml fractions were collected. The fractions comprising various PDE activities were pooled separately and used in later studies.
(§2) The assays were adapted to a 96-well format. The enzyme was assayed in 5 mM MgCl2, 15 mM Tris HCl (pH 7.4), 0.5 mg/ml bovine serum albumin, 1 μM cGMP or cAMP, 0.1 μCi [^3H]-cGMP or [^3H]-cAMP, and 2-10 μl of column elution. The total volume of the assay was 100 μl. The reaction mixture was incubated at 30° C. for 30 minutes. The reaction was stopped by boiling for 1 minute and then cooled down on ice. The resulting [^3H]5′-mononucleotides were further converted to uncharged [^3H]-nucleosides by adding 25 μl 1 mg/ml snake venom (Ophiophagus hannah) and incubating at 30° C. for 10 minute. The reaction was stopped by the addition of 1 ml Bio-Rad AG1-X2 resin slurry (1:3). All the charged nucleotides were bound by the resin and only uncharged [^3H]-nucleosides remained in the supernatant after centrifuging. An aliquot of 200 μl was taken and counted by liquid scintillation. PDE activity was expressed as pmol cyclic nucleotide hydrolyzed/min/ml of enzyme preparation.
(§3) Inhibitor studies were carried out in assay buffer with a final concentration of 10% DMSO.
(§4) The % inhibition of the maximum substrate conversion (by the enzyme in the absence of inhibitor) was calculated for each test compound concentration. Using GraphPad Prism's nonlinear regression analysis (sigmoidal dose response), the % inhibition vs log of the test compound concentration was plotted to determine the IC50. Under conditions where substrate concentration <<Km of the enzyme (Km=substrate concentration at which half of the maximal velocity of the enzyme is achieved), Ki is equivalent to the IC50 value.
(§5) Unless otherwise noted, PDEV inhibitory activities were measured using human tissue. The abbreviation “stereo” refers to the stereogenic configuration, the abbreviation “Rac” shall denote a racemic mixture.

For assay [2], the target named is T1, PDEV (Homo sapiens, UniProt O76074).
T1 construct: PDEV was isolated from rabbit and human tissues according to the protocol described by Boolell et al; from tissue; host or cells: human tissue, homogenate supernatant fractionated on Mono Q
In words: PDE assay: inhibition of PDEV isolated from human tissue. Format: biochemical. Particulars: for IC50: PDEV inhibitory activity. As for the experimental part: as §1, §2, §3, §4, §5

Where a name gives a salt, the structure may show the parent alone.

One may read the IC50 as the concentration that inhibits the measured activity by half. Low values mean inhibition by little substance, high ones a need for much substance. A word on the inhibition: it is the relative decrease from the control value, in per cent. High values mean a strong effect, low ones a weak effect.

“(E)-4-[3-Oxo-3-[1,2,3,4-tetrahydro-3-(3,4-methylenedioxyphenyl)-9-methoxy-9H-pyrrolo-[3,4-b]quinolin-2-yl]-1-propenyl]benzoic acid, methyl ester [Compound 64]” returned an IC50 at PDEV [1] of 113 nM.

`O=C(c1ccc(Br)o1)N1Cc2c(nc3ccccc3c2O)C1c1ccc2c(c1)OCO2` (racemic) [Compound 30, 1,2,3,4-Tetrahydro-3-(3,4-methylenedioxyphenyl)-2-(5-(2-bromo)-furoyl)-9H-pyrrolo[3,4-b]quinolin-9-one] displayed a half-inhibitory concentration (IC50) against PDEV [1] of 5.2 nM.

Take `CC(C)(C)OC(=O)N1Cc2c([nH]c3ccccc3c2=O)C1c1ccc2c(c1)OCO2` (racemic) [Compound 3, 1,2,3,4-Tetrahydro-2-(tert-butoxycarbonyl)-3-(3,4-methylenedioxyphenyl)-9H-pyrrolo-[3,4-b]quinolin-9-one]: the IC50 on PDEV [1] was determined as 340 nM.

As for `CN1CCN(C(=O)c2ccc(-c3ccc(C(=O)N4Cc5c([nH]c6ccccc6c5=O)C4c4ccc5c(c4)OCO5)o3)cc2)CC1` (stereo not drawn) [Compound 44, 1,2,3,4-Tetrahydro-3-(3,4-methylenedioxyphenyl)-2-(5-(4-(1-(4-methyl)piperazinylcarbonyl)-phenyl)-furoyl)-9H-pyrrolo[3,4-b]quinolin-9-one], at PDEV [2], 1.58 nM corresponded to half-maximal inhibition (IC50).

For `COC(=O)c1ccc(-c2ccc(C(=O)N3Cc4c([nH]c5ccccc5c4=O)C3c3ccc4c(c3)OCO4)o2)cc1` (stereo not drawn) [Compound 24, 1,2,3,4-Tetrahydro-3-(3,4-methylenedioxyphenyl)-2-[5-(4-methoxycarbonylphenyl)-furoyl]-9H-pyrrolo[3.4-b]-quinolin-9-one], half-maximal inhibition at PDEV [2] (IC50) required 1.21 nM.

At PDEV [2], `O=C(c1ccc(-c2ccccc2)o1)N1Cc2c(nc3ccccc3c2O)C1c1ccc2c(c1)OCO2` (racemic) [Compound 110] returned an IC50 of 0.755 nM.

The molecule `O=c1c2c([nH]c3ccccc13)C(c1ccc3c(c1)OCO3)N(c1ncc(-c3ccncc3)cn1)C2` (racemic) [Compound 99] showed an IC50 on PDEV [2] of 0.84 nM.

For `O=c1c2c([nH]c3ccccc13)C(c1ccc3c(c1)CCO3)N(c1ncc(-c3ccccn3)cn1)C2` (stereo not drawn) [Compound 61], the IC50 on PDEV [2] came to 1.03 nM.

Take `Oc1c2c(nc3ccccc13)C(c1ccc3c(c1)OCO3)N(c1ncccn1)C2` (racemic) [Compound 11, 1,2,3,4-Tetrahydro-2-(pyrimidin-2-yl)-3-(3,4-methylenedioxyphenyl)-9H-pyrrolo-[3,4-b]quinolin-9-one]: at PDEV [2], the IC50 stood at 3.73 nM.

As for `O=C(O)c1ccc(/C=C/C(=O)N2Cc3c([nH]c4ccccc4c3=O)C2c2ccc3c(c2)OCO3)cc1` (racemic) [Compound 8, (E)-4-[3-Oxo-3-[1,2,3,4-tetrahydro-3-(3,4-methylenedioxyphenyl)-9H-pyrrolo-[3,4-b]quinolin-9-one-2-yl]-1-propenyl]benzoic acid], the IC50 on PDEV [2] is 0.828 nM.

For `O=c1c2c([nH]c3ccccc13)C(c1ccc3c(c1)OCO3)N(Cc1ccccc1)C2` (racemic) [Compound 54, 1,2,3,4-Tetrahydro-2-benzyl-3-(3,4-methylenedioxyphenyl)-9H-pyrrolo-[3,4-b]quinolin-9-one], the IC50 against PDEV [2] is 234 nM.

In turn, `COc1ccc(-c2cnc(N3Cc4c([nH]c5ccccc5c4=O)C3c3ccc(OC)c(OC)c3)nc2)cc1OC` (stereo not drawn) [Compound 15, 1,2,3,4-Tetrahydro-[5-(3,4-dimethoxyphenyl)-pyrimidin-2-yl]-3-(3,4-dimethoxyphenyl)-9H-pyrrolo[3,4-b]quinolin-9-one] registered an IC50 against PDEV [2] of 1160 nM.

Consider `COc1ccc(-c2cnc(N3Cc4c([nH]c5ccccc5c4=O)C3c3ccc4c(c3)OCO4)nc2)cc1OC` (racemic) [Compound 1, 1,2,3,4-Tetrahydro-2-[5-(3,4-dimethoxyphenyl)-pyrimidin-2-yl]-3-(3,4-methylenedioxyphenyl)-9H-pyrrolo-[3,4-b]quinolin-9-one], for which the IC50 against PDEV [2] is 0.165 nM.

On PDEV [2], `O=c1c2c([nH]c3ccccc13)[C@@H](c1ccc3c(c1)CCO3)N(Cc1ccccc1)C2` [Compound 77, (R)-1,2,3,4-Tetrahydro-2-benzyl-3-(2,3-dihydrobenzofuran-5-yl)-9H-pyrrolo-[3,4-b]quinolin-9-one] had an IC50 of 62.7 nM.

Turning to `Oc1c2c(nc3ccccc13)C(c1ccc3c(c1)OCO3)N(c1ncc(-c3cccnc3)cn1)C2` (racemic) [Compound 56, 1,2,3,4-Tetrahydro-2-[5-(3-pyridinyl)-pyrimidin-2-yl]-3-(3,4-methylenedioxyphenyl)-9H-pyrrolo-[3,4-b]quinolin-9-one], the concentration for half-maximal inhibition (IC50) at PDEV [2] was 1.24 nM.

In the case of `O=c1c2c([nH]c3ccccc13)C(c1ccc3c(c1)CCO3)NC2` (racemic) [Compound 17, 1,2,3,4-Tetrahydro-3-(2,3-dihydrobenzofuran-5-yl)-9H-pyrrolo-[3,4-b]quinolin-9-one, hydrochloride salt], 10 µM produced 65% inhibition against PDEV [2] (10 μM test compound).

Consider `COC(=O)c1ccc(/C=C/C(=O)N2Cc3c([nH]c4ccccc4c3=O)C2c2ccc3c(c2)CCO3)cc1` (racemic) [Compound 20, (E)-4-[3-Oxo-3-[1,2,3,4-tetrahydro-3-(2,3-dihydrobenzofuran-5-yl)-9H-pyrrolo-[3,4-b]quinolin-9-one-2-yl]-1-propenyl]benzoic acid, methyl ester], for which, at PDEV [2], 0.53 nM corresponded to half-maximal inhibition (IC50).

On PDEV [2], `Oc1c2c(nc3ccccc13)C(c1ccc3c(c1)CCO3)N(c1ncccn1)C2` (racemic) [Compound 123, 3-(2,3-Dihydro-benzofuran-5-yl)-2-pyrimidin-2-yl-1,2,3,4-tetrahydro-pyrrolo[3,4-b]quinolin-9-one] registered an IC50 of 12.8 nM.

In turn, `COc1ccc(-c2ccc(C(=O)N3Cc4c([nH]c5ccccc5c4=O)C3c3ccc4c(c3)OCO4)o2)cc1` (stereo not drawn) [Compound 21, 1,2,3,4-Tetrahydro-3-(3,4-methylenedioxyphenyl)-2-[5-(4-methoxyphenyl)-furoyl]-9H-pyrrolo[3,4-b]-quinolin-9-one] showed an IC50 on PDEV [2] of 1.93 nM.

`O=c1c2c([nH]c3ccccc13)C(c1ccc3c(c1)OCO3)N(c1ncc(Br)cn1)C2` (racemic) [Compound 55, 1,2,3,4-Tetrahydro-2-(5-bromopyrimidin-2-yl)-3-(3,4-methylenedioxyphenyl)-9H-pyrrolo-[3,4-b]quinolin-9-one] showed an IC50 against PDEV [2] of 4.48 nM.

On to `Oc1c2c(nc3ccccc13)[C@@H](c1ccc3c(c1)CCO3)N(c1ncc(-c3ccccn3)cn1)C2` [Compound 76], for which, at PDEV [2], inhibition was half-maximal at 0.23 nM (IC50).

The molecule `O=C(c1ccc(-c2ccco2)o1)N1Cc2c(nc3ccccc3c2O)C1c1ccc2c(c1)OCO2` (racemic) [Compound 117] gave an IC50 at PDEV [2] of 4.75 nM.

At PDEV [2], `O=C(c1ccc(-c2cccc(C(F)(F)F)c2)o1)N1Cc2c([nH]c3ccccc3c2=O)C1c1ccc2c(c1)OCO2` (stereo not drawn) [Compound 13, 1,2,3,4-Tetrahydro-3-(3,4-methylenedioxyphenyl)-2-[5-(3-trifluoromethylphenyl)furoyl]-9H-pyrrolo-[3,4-b]quinolin-9-one] gave an IC50 of 0.227 nM.

As for `COC(=O)c1ccc(/C=C/C(=O)N2Cc3c([nH]c4ccccc4c3=O)C2c2ccc3c(c2)OCO3)cc1` (racemic) [Compound 6, (E)-4-[3-Oxo-3-[1,2,3,4-tetrahydro-3-(3,4-methylenedioxyphenyl)-9H-pyrrolo-[3,4-b]quinolin-9-one-2-yl]-1-propenyl]benzoic Acid Methyl Ester], the IC50 against PDEV [2] was found to be 0.507 nM.

Consider `CN1CCN(C(=O)c2ccc(-c3ccc(C(=O)N4Cc5c([nH]c6ccccc6c5=O)[C@H]4c4ccc5c(c4)OCO5)o3)cc2)CC1` [Compound 69, (R)-1,2,3,4-Tetrahydro-3-(3,4-methylenedioxyphenyl)-2-(5-(4-(1-(4-methyl)-piperazinylcarbonyl)-phenyl)-furoyl)-9H-pyrrolo[3,4-b]quinolin-9-one], for which, at PDEV [2], the IC50 was found to be 0.32 nM.

In the case of `O=Cc1ccc(-c2ccc(C(=O)N3Cc4c([nH]c5ccccc5c4=O)C3c3ccc4c(c3)OCO4)o2)cc1` (stereo not drawn) [Compound 23, 1,2,3,4-Tetrahydro-3-(3,4-methylenedioxyphenyl)-2-[5-(4-formylphenyl)-furoyl]-9H-pyrrolo[3,4-b]-quinolin-9-one], it took 1.76 nM to reach half-maximal inhibition at PDEV [2] (IC50).

`O=C(c1cccnc1O)N1Cc2c([nH]c3ccccc3c2=O)C1c1ccc2c(c1)OCO2` (racemic) [Compound 25, 1,2,3,4-Tetrahydro-3-(3,4-methylenedioxyphenyl)-2-[2-hydroxynicotinoyl)-9H-pyrrolo[3,4-b]-quinolin-9-one] registered a 50% inhibitory concentration (IC50) against PDEV [2] of 1.57 nM.

The record behind these values is patent publication US6818646B2 (priority 2000, dated 2004).
